The text below walks through data of PubChem BioAssay (NCI).

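Grown in 96-well plates, cells were treated for 48 hours with each compound at five concentrations. Insufficient inhibition: endpoint recorded as highest concentration tested. The concentration for full growth arrest is given as TGI.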

Some test systems named below: TK-10 renal; OVCAR-3 ovarian; MALME-3M melanoma; SN12C renal; HT29 colon; NCI-H522 lung; HCT-116 colon; SW-620 colon; 786-0 renal; RPMI-8226 leukemia; HOP-62 NSCLC; CCRF-CEM leukemia.
Assay in all cases: NCI anticancer screen, dose series, 48 h

For the compound `O=C(O)CCCN1CCCCC1`, the TGI in the experiment on TK-10 renal, with OVCAR-3 ovarian, in the experiment on MALME-3M melanoma, in the experiment with SN12C renal, in the experiment with HT29 colon and in the experiment on NCI-H522 lung was more than 100 µM throughout. Also, the TGI in the experiment with HCT-116 colon, with SW-620 colon, in the experiment on 786-0 renal, in the experiment with RPMI-8226 leukemia, with HOP-62 NSCLC and with CCRF-CEM leukemia was more than 100 µM in each case.

Take `Cc1c(Cl)cccc1NC(=O)C(=O)C1C(=O)NC(=O)NC1=O`: the TGI in the experiment with TK-10 renal, in the experiment on OVCAR-3 ovarian, in the experiment with MALME-3M melanoma, in the experiment on SN12C renal, in the experiment with HT29 colon and with NCI-H522 lung was more than 100 µM in each case. In addition, the TGI in the experiment with HCT-116 colon, in the experiment on SW-620 colon, in the experiment with 786-0 renal, in the experiment on RPMI-8226 leukemia, with HOP-62 NSCLC and in the experiment with CCRF-CEM leukemia was more than 100 µM in each case.

For `COc1cc(/C=C\c2ccc(SC)cc2)cc(OC)c1OC`, the TGI is more than 100 µM with TK-10 renal; 57.8 µM in the experiment with OVCAR-3 ovarian; more than 100 µM with MALME-3M melanoma; more than 100 µM in the experiment with SN12C renal; 0.59 µM with HT29 colon; 0.0369 µM in the experiment with NCI-H522 lung. Moreover, the TGI in the experiment with HCT-116 colon is more than 26.3 µM; in the experiment on SW-620 colon, more than 100 µM; with 786-0 renal, 18.5 µM; in the experiment on RPMI-8226 leukemia it was 25.2 µM; with HOP-62 NSCLC, more than 76.3 µM; in the experiment with CCRF-CEM leukemia it was more than 47.1 µM.

`COC(=O)c1ccc(/C=C/C2=CC(=O)C=CC2=O)cc1`: the TGI in the experiment with TK-10 renal was determined as 44.4 µM; in the experiment with OVCAR-3 ovarian, 38.4 µM; in the experiment on MALME-3M melanoma, 36.9 µM; in the experiment on SN12C renal, 58 µM; in the experiment with HT29 colon, 48.9 µM; in the experiment with NCI-H522 lung, 3.6 µM. The TGI in the experiment with HCT-116 colon is 29.6 µM; in the experiment with SW-620 colon it was 48 µM; with 786-0 renal, 26.1 µM; in the experiment with RPMI-8226 leukemia, 4.49 µM; in the experiment with HOP-62 NSCLC, more than 100 µM; in the experiment with CCRF-CEM leukemia, 6.54 µM.

With `OC(Cn1cncn1)(Cn1cncn1)c1ccc(Cl)cc1Cl`, the TGI in the experiment with TK-10 renal, in the experiment with OVCAR-3 ovarian, in the experiment on MALME-3M melanoma, with SN12C renal, with HT29 colon and with NCI-H522 lung was more than 100 µM throughout. The TGI in the experiment on HCT-116 colon, in the experiment on SW-620 colon, in the experiment with 786-0 renal, in the experiment on RPMI-8226 leukemia, in the experiment on HOP-62 NSCLC and with CCRF-CEM leukemia was more than 100 µM each time.

For the compound `COc1ccc2c(c1)CCC(CN1CCN(CCOC(c3ccc(F)cc3)c3ccc(F)cc3)CC1)=C2`, the TGI in the experiment on TK-10 renal stood at 44.4 µM; with OVCAR-3 ovarian, 50.6 µM; in the experiment on MALME-3M melanoma, 27.9 µM; in the experiment with SN12C renal, 26.3 µM; with HT29 colon, 32.4 µM; in the experiment with NCI-H522 lung it was 27.8 µM. In addition, the TGI in the experiment on HCT-116 colon is 21.2 µM; in the experiment with SW-620 colon, more than 100 µM; in the experiment with 786-0 renal, 27.2 µM; in the experiment with RPMI-8226 leukemia it was 36.9 µM; in the experiment on HOP-62 NSCLC, more than 100 µM; in the experiment with CCRF-CEM leukemia it was more than 100 µM.

For `CC(C)(C)c1cc(C2COC(=O)COCCOCC(=O)OCCOCCO2)cc(C(C)(C)C)c1O` (stereo not drawn), the TGI is 32.4 µM with TK-10 renal; more than 100 µM with OVCAR-3 ovarian; more than 100 µM in the experiment on MALME-3M melanoma; 44.6 µM in the experiment with SN12C renal; more than 100 µM with HT29 colon; more than 94 µM with NCI-H522 lung. For the same compound, the TGI in the experiment on HCT-116 colon was more than 100 µM; in the experiment on SW-620 colon it was more than 100 µM; with 786-0 renal, 32.5 µM; with RPMI-8226 leukemia, more than 100 µM; in the experiment on HOP-62 NSCLC, more than 92.9 µM; in the experiment with CCRF-CEM leukemia, more than 100 µM.

Turning to `COc1ccc(N(C(=O)OC(C)(C)C)[C@@H]2C(C)=C[C@H]([S@@](=O)c3ccc(C)cc3)[C@@H]3C(=O)N(C)C(=O)[C@@H]32)cc1`, the TGI turned out to be 43.4 µM in the experiment with TK-10 renal; 80.8 µM in the experiment with OVCAR-3 ovarian; 71.8 µM in the experiment with MALME-3M melanoma; 32.2 µM in the experiment on SN12C renal; 45.5 µM in the experiment on HT29 colon; 18.5 µM with NCI-H522 lung. In addition, the TGI is 35.9 µM in the experiment on HCT-116 colon; 45.5 µM in the experiment with SW-620 colon; 37.9 µM with 786-0 renal; 44.3 µM in the experiment with RPMI-8226 leukemia; 64.2 µM in the experiment with HOP-62 NSCLC; more than 100 µM in the experiment with CCRF-CEM leukemia.

For the compound `CC(C)(C)NNc1c([N+](=O)[O-])cnn(-c2ccccc2)c1=O`, the TGI in the experiment with TK-10 renal turned out to be 36.8 µM; in the experiment on OVCAR-3 ovarian, 5.54 µM; in the experiment on MALME-3M melanoma, 11.1 µM; in the experiment on SN12C renal, 6.35 µM; in the experiment on HT29 colon, 7.43 µM; in the experiment on NCI-H522 lung it was 4.72 µM. In addition, the TGI was determined as 5.63 µM in the experiment on HCT-116 colon; 3.41 µM in the experiment on SW-620 colon; 13.4 µM in the experiment on 786-0 renal; 23.8 µM with RPMI-8226 leukemia; 22.3 µM in the experiment on HOP-62 NSCLC; 3.4 µM with CCRF-CEM leukemia.
